Laboratory results published in patent publication US8329735B2, “Tetrazole compounds which selectively modulate the CB2 receptor” (Boehringer Ingelheim International GmbH, priority 2010, dated 2012).
In brackets after ≈: the same amount, converted by molar mass. Read-outs that look alike come from different tables or passages of the source.

Tests used:
[1] = Aqueous (equilibrium) solubility assay; assay type: physicochemical; settings: aqueous buffer, thermodynamic from solid, 48 hrs equilibrium
Experimental: The equilibrium solubility of compounds is determined in pH 2, 4.5, 6.8 buffers. Prior to solubility measurement, the crystalline/amorphous characteristics of the sample are determined by observing the powder form under polarized light microscope. Solubility is only measured when compound is crystalline.
Approximately 2 mg of compound are weighed out into a vial and 1-2 ml of buffer are added into the vial (pHs 2 & 4.5, use 1 ml and for pHs 6.8 and 7.4 use 2 ml of buffer). The vial is rotated for 48 hrs protected from light. After 48 hrs, the sample is transferred into an eppendorf tube and centrifuged for 10 minutes at 14,000 RPM, if the supernatant is not clear, it is filtered (PVDF filter). The clear supernatant is diluted if necessary, before analyzing via HPLC. The final pH of the supernatant or the filtrate is measured and reported. The external calibration curve is used to determine the solubility value. The percentage of extraneous peaks relative to the parent peak is monitored in the standard solution as well as the solubility sample. Preferred compounds of the invention will have a solubility of >100 μg/ml.

[2] = Human microsomal stability assay; assay type: in vitro ADME; settings: human liver microsomes 1 mg protein/ml, 1 uM compound, pH 7.4
Experimental: The double time point high throughput screen for human liver microsomal metabolic stability is used to measure the in vitro metabolism of test compounds by human liver microsomal enzymes. The data collected are analyzed to calculate a half-life (t½, min) and clearance (expressed as percent hepatic blood flow, % QH) for test compounds. The assay is performed in 50 mM potassium phosphate buffer, pH 7.4 and 2.5 mM NADPH. Test samples are dissolved in DMSO and acetonitrile for a final assay concentration of 1 uM. Human liver microsomes are diluted in assay buffer to a final assay concentration of 1 mg protein/ml. Compound solution and microsome suspension are added to assay buffer for a final incubation volume of 350 ul. The preparation is incubated for 5 min in a 37° C. water bath. The reaction is started by the addition of NADPH. Volumes of 80 ul are removed from the incubation mix at 0, 5, and 30 min after the start of the reaction and added to 160 ul acetonitrile. The supernatant is transferred to 0.25 mm glass fiber filter plates and centrifuged for 5 min at 3000 rpm. Injection volumes of 10 ul are typically added to HPLC columns with formic acid in water or acetonitrile at a flow rate of 0.3 ml/min. Percent loss of parent compound is calculated from the area under each time point to determine the half-life and clearance. Preferred compounds of the invention will have a human liver microsomal stability of <25% QH.

[3] = test system: Salmonella bacterial strains TA98 and TA100; test: Ames mutagenicity assay: bacteria reverse mutation screening assay; assay type: cell-based; settings: TA98 and TA100, presence or absence of S9
Experimental: The Ames ^(1) Salmonella bacterial strains used in the abbreviated screening assay ^(2) are TA98 and TA100. Actively growing (log phase) bacteria are incubated with test compound and trace amounts of histidine in the presence or absence of S9 for 48 hours on minimal agar plates. Test compound is dissolved in DMSO to a final concentration of 100 mg/ml. The stock is serially diluted to yield concentrations of 100, 50, 25 12.5 and 6.3 mg/ml. Fifty microliters of dosing solution is combined with top agar and buffer (or S9 mix) and poured on duplicate plates to yield effective doses of 5000, 2500, 1250, 625 and 313 μg/plate. Positive and negative controls plates are included. Formation of colonies after 48 hr incubation at 37° C. is an indication of genetic reversion, either arising spontaneously or caused by the test compound. The average number of spontaneous colonies growing on control plates is compared to the number of colonies on test plates. A fold increase of 2-3× over background is generally considered a positive response for mutagenicity. • 1. Maron, D. M. and Ames, B. N. (1983). “Revised Methods for the Salmonella Mutagenicity Test”. Mutat. Res. 113, 173-215. • 2. D. A. Burke, D. J. Wedd, and B. Burlinson (1996). “Use of the Miniscreen assay to screen novel compounds for bacterial mutagenicity in the pharmaceutical industry”. Mutagenesis 11: 201-205.

[4] = target: T1, human CB1R (Homo sapiens, UniProt P21554); test: CB1R mediated modulation of cAMP synthesis; assay type: cell-based; settings: CHO cells expressing human CB1R, forskolin-stimulated cAMP
T1 construct: host or cells: CHO cells
Experimental: Compounds of the invention are evaluated for their CB1 agonist or inverse agonistic activity in accordance with the following experimental method.
(§1) CHO cells expressing human CB1R (Euroscreen) are plated at a density of 5000 cells per well in 384 well plates and incubated overnight at 37° C. After removing the media, the cells are treated with test compounds diluted in stimulation buffer containing 1 mM IBMX, 0.25% BSA and 10 uM Forskolin. The assay is incubated for 30 minutes at 37° C. Cells are lysed and the cAMP concentration is measured using DiscoverX—XS cAMP kit, following the manufacturer's protocol. In this setting, agonists will decrease forskolin induced production of cAMP while inverse agonists will further increase forskolin induced production of cAMP. EC50 of agonists are calculated as follows. The maximal amount of cAMP produced by forskolin compared to the level of cAMP inhibited by 1 uM CP55940 is defined as 100%. The EC50 value of each test compound is determined as the concentration at which 50% of the forskolin-stimulated cAMP synthesis is inhibited. Data is analyzed using a four-parameter logistic model. (Model 205 of XLfit 4.0).

[5] = target: T2, human CB2R (Homo sapiens, UniProt P34972); test: CB2R mediated modulation of cAMP synthesis; assay type: cell-based
T2 construct: host or cells: CHO cells
Experimental: Compounds of the invention are evaluated for their CB2 agonist or inverse agonistic activity in accordance with the following experimental method.
as §1, with “CB2R” for “CB1R”

[6] = pH 4.5 buffer, read-out: solubility at pH 4.5
[7] = pH 6.8 buffer, read-out: solubility at pH 6.8
[8] = Table XI, read-out: CB1 CAMP EC50
[9] = Table XI, CHO cells expressing human CB2R, forskolin-stimulated cAMP, read-out: CB2 CAMP EC50

T1 sequence (P21554 whole entry): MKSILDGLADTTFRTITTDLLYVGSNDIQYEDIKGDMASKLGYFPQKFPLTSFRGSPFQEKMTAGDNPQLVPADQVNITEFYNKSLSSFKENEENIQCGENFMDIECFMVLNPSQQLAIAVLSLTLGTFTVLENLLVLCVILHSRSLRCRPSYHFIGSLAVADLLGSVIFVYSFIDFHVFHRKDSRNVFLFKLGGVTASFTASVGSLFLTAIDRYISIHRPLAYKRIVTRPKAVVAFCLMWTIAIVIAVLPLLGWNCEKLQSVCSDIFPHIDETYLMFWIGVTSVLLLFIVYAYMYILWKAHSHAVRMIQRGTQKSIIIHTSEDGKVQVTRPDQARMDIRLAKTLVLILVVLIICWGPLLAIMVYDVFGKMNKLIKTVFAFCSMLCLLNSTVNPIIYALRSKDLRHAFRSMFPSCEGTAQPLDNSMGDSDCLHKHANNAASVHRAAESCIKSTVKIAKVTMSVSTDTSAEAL
T2 sequence (P34972 whole entry): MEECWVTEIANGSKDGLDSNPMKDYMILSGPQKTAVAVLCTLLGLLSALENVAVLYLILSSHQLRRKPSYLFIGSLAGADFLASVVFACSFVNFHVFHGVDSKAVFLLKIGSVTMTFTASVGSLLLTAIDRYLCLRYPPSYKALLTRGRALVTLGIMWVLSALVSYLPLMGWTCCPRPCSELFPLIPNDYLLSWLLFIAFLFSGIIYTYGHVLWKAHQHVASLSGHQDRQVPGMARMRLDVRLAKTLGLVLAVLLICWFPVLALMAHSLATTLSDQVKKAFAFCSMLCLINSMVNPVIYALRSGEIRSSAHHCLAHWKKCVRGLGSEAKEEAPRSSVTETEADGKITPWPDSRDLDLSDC

SMILES | solubility at 48 h [1, 6] [µg/mL] | solubility at 48 h [1, 7] [µg/mL] | HLM clearance (percent hepatic blood flow) [2] [QH %] | Ames [3] | EC50 ([4]; CB1 CAMP EC50, Table XI) [nM] | EC50 [5] [nM] | EC50 [4, 8] [nM] | EC50 [5, 9] [nM] | EC50 ([4]; CB1 EC50, Table II) [nM] | EC50 ([4]; Table II, read-out: CB1 EC50) [nM] | EC50 ([5]; Table II, CHO cells expressing human CB2R, forskolin-stimulated cAMP, read-out: CB2 EC50) [nM]
CC(C)(C)c1cc(NC(=O)C(C)(C)S(=O)(=O)c2ccc(F)cc2)no1 [Example 130 WO08014199] | 5.2 (≈ 14.1 µM) | 4.7 (≈ 12.8 µM) | 68 | negative | 2240 | 2.4 | – | – | – | – | –
CCC(C)S(=O)(=O)C(C)(C)C(=O)Nc1cc(C(C)(C)C)nn1C (stereo not drawn) [Example 43 WO08039645] | 1260 (≈ 3680 µM) | 1160 (≈ 3370 µM) | 61 | positive | – | – | > 20000 | 642 | – | – | –
CC(C)(C)n1nnc(NC(=O)C(C)(C)S(=O)(=O)C2CCOCC2)n1 [Table II compound 1] | > 2120 | > 1750 | <30.10 | negative | > 50000 | 21 | – | – | > 20000 | – | –
CO[C@H]1CC[C@@H](S(=O)(=O)C(C)(C)C(=O)Nc2nnn(C(C)(C)C)n2)CC1 | – | – | – | – | – | 56 | – | – | > 50000 | – | –
Cn1nc(C(C)(C)C)cc1NC(=O)C(C)(C)S(=O)(=O)CC1CCOCC1 [Example 59 WO08039645] | 396 (≈ 1030 µM) | 452 (≈ 1170 µM) | <30.10 | positive | – | – | > 20000 | 140 | – | – | –
CC(C)(C)c1cc(NC(=O)C(C)(C)S(=O)(=O)c2ccc(F)cc2)on1 [Example 248 WO08014199] | 1.68 (≈ 4.56 µM) | 1.25 (≈ 3.39 µM) | 32 | negative | 3290 | 0.98 | – | – | – | – | –
Cn1nc(C(C)(C)C)cc1NC(=O)C(C)(C)S(=O)(=O)c1ccc(F)cc1 [Example 251 WO08014199] | 137 (≈ 359 µM) | 148 (≈ 388 µM) | 30 | positive | 10900 | 2.57 | – | – | – | – | –
CC(C)(C)n1nnc(NC(=O)C(C)(C)S(=O)(=O)[C@H]2CC[C@@H](O)CC2)n1 | – | – | – | – | – | 8.7 | – | – | > 50000 | – | –
CC(C)(C)n1nnc(NC(=O)C(C)(C)S(=O)(=O)c2ccc(F)cc2)n1 [Table II compound 6] | 133 (≈ 360 µM) | 122 (≈ 330 µM) | <30 | negative | 39500 | 22 | – | – | 39500 | – | –
CC(C)(C)n1nnc(NC(=O)C(C)(C)S(=O)(=O)CC2CCOCC2)n1 [Table II compound 2] | 391 (≈ 1050 µM) | 353 (≈ 945 µM) | <30.10 | negative | > 50000 | 50 | – | – | > 50000 | – | –
CC[C@H](C)S(=O)(=O)C(C)(C)C(=O)Nc1nnn(C(C)(C)C)n1 [Table II compound 5] | 1210 (≈ 3640 µM) | 1150 (≈ 3470 µM) | <30.10 | negative | – | – | > 50000 | – | – | > 50000 | 101
CC(C)(C)c1cc(NC(=O)C(C)(C)S(=O)(=O)C2CCOCC2)no1 [Example 66 WO08039645] | 56 (≈ 156 µM) | 53 (≈ 148 µM) | 57 | negative | > 50000 | 0.72 | – | – | – | – | –
CC(C)(C)c1cc(NC(=O)C(C)(C)S(=O)(=O)CC2CCOCC2)no1 [Example 56 WO08039645] | 47 (≈ 126 µM) | 44 (≈ 118 µM) | 47 | negative | > 20000 | 4.5 | – | – | – | – | –
CCC(C)S(=O)(=O)C(C)(C)C(=O)Nc1cc(C(C)(C)C)on1 (stereo not drawn) [Example 42 WO08039645] | 20 (≈ 60.5 µM) | – | 68 | negative | > 20000 | 19 | – | – | – | – | –
CC(C)(C)c1csc(NC(=O)C(C)(C)S(=O)(=O)C2CCOCC2)n1 [Example 67 WO08039645] | 15 (≈ 40.1 µM) | 16 (≈ 42.7 µM) | 79 | negative | 11400 | 12 | – | – | – | – | –
CC(C)(C)c1csc(NC(=O)C(C)(C)S(=O)(=O)c2ccc(F)cc2)n1 [Example 252 WO08014199] | 1.74 (≈ 4.53 µM) | 1.62 (≈ 4.21 µM) | 85 | negative | 934 | 0.401 | – | – | – | – | –
Cn1nc(C(C)(C)C)cc1NC(=O)C(C)(C)S(=O)(=O)C1CCOCC1 [Example 69 WO08039645] | 1040 (≈ 2810 µM) | 1230 (≈ 3320 µM) | <30.10 | positive | – | – | > 20000 | 216 | – | – | –
CC(C)(C)c1csc(NC(=O)C(C)(C)S(=O)(=O)CC2CCOCC2)n1 [Example 57 WO08039645] | 383 (≈ 986 µM) | 406 (≈ 1040 µM) | 87 | negative | 2400 | 23 | – | – | – | – | –
CC(C)(C)n1nnc(NC(=O)C(C)(C)S(=O)(=O)CC[C@@H]2CCOC2)n1 | – | – | – | – | – | 12 | – | – | ~50000 | – | –
